Test system: MV-4-11 cells
Assay: Gene expression microarray analysis (Affymetrix PrimeView) and GSEA
Assay type: cell-based, human
Design: RFU PODN (11730768_x_at) / Fold change /veh PODN (11730768_x_at) / RFU LINC00158 (11744669_a_at) / Fold change /veh LINC00158 (11744669_a_at) / RFU DUSP10 (11751237_a_at) / Fold change /veh DUSP10 (11751237_a_at) / RFU ID3 (11757404_x_at) / Fold change /veh ID3 (11757404_x_at) / RFU PLEKHG5 (11737974_s_at) / Fold change /veh PLEKHG5 (11737974_s_at) / RFU LRRC4B (11730491_at) / Fold change /veh LRRC4B (11730491_at) / RFU GIMAP4 (11747438_a_at) / Fold change /veh GIMAP4 (11747438_a_at) / RFU KRT8 (11758183_x_at) / Fold change /veh KRT8 (11758183_x_at) / RFU CNN1 (11734310_a_at) / Fold change /veh CNN1 (11734310_a_at) / RFU VPS37D (11726825_at) / Fold change /veh VPS37D (11726825_at) / RFU C10orf10 (11716522_x_at) / Fold change /veh C10orf10 (11716522_x_at) / RFU KIR2DL2 /// KIR2DL4 /// KIR2DL5A /// KIR2DL5B /// KIR2DS1 /// KIR2DS2 /// KIR2DS3 /// KIR2DS4 /// KIR3DL3 /// KIR3DL3 /// KIR3DS1 (11738374_at) / Fold change /veh KIR2DL2 /// KIR2DL4 /// KIR2DL5A /// KIR2DL5B /// KIR2DS1 /// KIR2DS2 /// KIR2DS3 /// KIR2DS4 /// KIR3DL3 /// KIR3DL3 /// KIR3DS1 (11738374_at) / RFU C1QL1 (11718748_at) / Fold change /veh C1QL1 (11718748_at) / RFU TMPRSS4 (11747572_a_at) / Fold change /veh TMPRSS4 (11747572_a_at) / RFU HAMP (11756126_x_at) / Fold change /veh HAMP (11756126_x_at) / RFU RNFT2 (11725882_a_at) / Fold change /veh RNFT2 (11725882_a_at) / RFU NR4A2 (11747474_a_at) / Fold change /veh NR4A2 (11747474_a_at) / RFU ABCC12 (11746883_a_at) / Fold change /veh ABCC12 (11746883_a_at) / RFU TMEM136 (11760407_x_at) / Fold change /veh TMEM136 (11760407_x_at) / RFU CLDN22 /// WWC2 (11732394_at) / Fold change /veh CLDN22 /// WWC2 (11732394_at) / RFU HLA-DPB1 (11760878_x_at) / Fold change /veh HLA-DPB1 (11760878_x_at) / RFU SPINT1 (11716480_a_at) / Fold change /veh SPINT1 (11716480_a_at) / RFU GAP43 (11754022_s_at) / Fold change /veh GAP43 (11754022_s_at) / RFU A4GNT (11735810_at) / Fold change /veh A4GNT (11735810_at) / RFU PRB3 (11715151_x_at) / Fold change /veh PRB3 (11715151_x_at) / RFU TUBB4B (11761932_at) / Fold change /veh TUBB4B (11761932_at) / RFU CAPN14 (11732068_a_at) / Fold change /veh CAPN14 (11732068_a_at) / RFU TMCC2 (11721928_a_at) / Fold change /veh TMCC2 (11721928_a_at) / RFU IRGQ (11745062_a_at) / Fold change /veh IRGQ (11745062_a_at) / RFU FAM174B (11720279_a_at) / Fold change /veh FAM174B (11720279_a_at) / RFU TMPRSS4 (11748680_a_at) / Fold change /veh TMPRSS4 (11748680_a_at) / RFU FAM212B (11763350_a_at) / Fold change /veh FAM212B (11763350_a_at) / RFU PLEKHG5 (11743358_a_at) / Fold change /veh PLEKHG5 (11743358_a_at) / RFU ZSCAN30 (11745921_a_at) / Fold change /veh ZSCAN30 (11745921_a_at) / RFU CMKLR1 (11741424_a_at) / Fold change /veh CMKLR1 (11741424_a_at) / RFU LOC101060620 /// MAPK8IP1 (11723275_at) / Fold change /veh LOC101060620 /// MAPK8IP1 (11723275_at) / RFU SPTSSB (11747773_x_at) / Fold change /veh SPTSSB (11747773_x_at) / RFU PRSS12 (11739890_at) / Fold change /veh PRSS12 (11739890_at) / RFU BIN1 (11741810_x_at) / Fold change /veh BIN1 (11741810_x_at) / RFU WNT11 (11732464_a_at) / Fold change /veh WNT11 (11732464_a_at) / RFU C10orf10 (11716521_a_at) / Fold change /veh C10orf10 (11716521_a_at) / RFU C5orf56 (11738089_at) / Fold change /veh C5orf56 (11738089_at) / RFU CYB561 (11721691_x_at) / Fold change /veh CYB561 (11721691_x_at) / RFU ANKRD19P (11752326_a_at) / Fold change /veh ANKRD19P (11752326_a_at) / RFU OR2T12 /// OR2T33 /// OR2T8 (11738714_s_at) / Fold change /veh OR2T12 /// OR2T33 /// OR2T8 (11738714_s_at) / RFU VCAN (11748164_a_at) / Fold change /veh VCAN (11748164_a_at) / RFU JSRP1 (11732532_at) / Fold change /veh JSRP1 (11732532_at) / RFU KRTAP10-11 (11738290_x_at) / Fold change /veh KRTAP10-11 (11738290_x_at) / RFU MYO3A (11730013_a_at) / Fold change /veh MYO3A (11730013_a_at) / RFU EBF3 (11725865_a_at) / Fold change /veh EBF3 (11725865_a_at) / RFU CAMK2N1 (11719241_x_at) / Fold change /veh CAMK2N1 (11719241_x_at) / RFU C5orf56 (11738088_a_at) / Fold change /veh C5orf56 (11738088_a_at) / RFU OLFML3 (11715873_a_at) / Fold change /veh OLFML3 (11715873_a_at) / RFU LOC100653217 /// NTM (11731650_a_at) / Fold change /veh LOC100653217 /// NTM (11731650_a_at) / RFU MAPK11 (11762145_a_at) / Fold change /veh MAPK11 (11762145_a_at) / RFU FIZ1 (11724087_x_at) / Fold change /veh FIZ1 (11724087_x_at) / RFU OASL (11726364_x_at) / Fold change /veh OASL (11726364_x_at) / RFU SOX15 (11748057_x_at) / Fold change /veh SOX15 (11748057_x_at) / RFU CD79A (11719716_a_at) / Fold change /veh CD79A (11719716_a_at) / RFU HIST1H1D (11736915_at) / Fold change /veh HIST1H1D (11736915_at) / RFU CASKIN2 (11723855_a_at) / Fold change /veh CASKIN2 (11723855_a_at) / RFU LOC730098 (11760151_x_at) / Fold change /veh LOC730098 (11760151_x_at) / RFU OR4N2 (11742367_at) / Fold change /veh OR4N2 (11742367_at) / RFU PRRT2 (11749266_a_at) / Fold change /veh PRRT2 (11749266_a_at) / RFU SNX32 (11753110_a_at) / Fold change /veh SNX32 (11753110_a_at) / RFU CDHR5 (11726645_a_at) / Fold change /veh CDHR5 (11726645_a_at) / RFU RCAN1 (11760418_a_at) / Fold change /veh RCAN1 (11760418_a_at) / RFU FAM167A (11723789_a_at) / Fold change /veh FAM167A (11723789_a_at) / RFU FAM26E (11764081_at) / Fold change /veh FAM26E (11764081_at) / RFU ISYNA1 (11749810_s_at) / Fold change /veh ISYNA1 (11749810_s_at) / RFU ACY1 (11761880_at) / Fold change /veh ACY1 (11761880_at) / RFU 11764098_at / Fold change /veh 11764098_at / RFU SAMD14 (11745864_x_at) / Fold change /veh SAMD14 (11745864_x_at) / RFU NPB (11741838_a_at) / Fold change /veh NPB (11741838_a_at) / RFU TMPRSS6 (11731388_a_at) / Fold change /veh TMPRSS6 (11731388_a_at) / RFU KRTAP10-2 (11738614_at) / Fold change /veh KRTAP10-2 (11738614_at) / RFU ARHGAP8 /// PRR5-ARHGAP8 (11727945_x_at) / Fold change /veh ARHGAP8 /// PRR5-ARHGAP8 (11727945_x_at) / RFU KRTAP5-7 /// NADSYN1 (11734609_at) / Fold change /veh KRTAP5-7 /// NADSYN1 (11734609_at) / RFU RASL12 (11751679_a_at) / Fold change /veh RASL12 (11751679_a_at) / RFU CDKN2B (11736163_a_at) / Fold change /veh CDKN2B (11736163_a_at) / RFU PRF1 (11729649_at) / Fold change /veh PRF1 (11729649_at) / RFU, ZNF638 /// ZNF638-IT1 / Fold change vs veh, ZNF638 /// ZNF638-IT1 / RFU, PANK3 / Fold change vs veh, PANK3 / RFU, SH3YL1 / Fold change vs veh, SH3YL1 / RFU, ZEB2 / Fold change vs veh, ZEB2 / RFU, NRIP1 / Fold change vs veh, NRIP1 / RFU, PTTG1IP / Fold change vs veh, PTTG1IP / RFU, CAPN2 / Fold change vs veh, CAPN2 / RFU, MED14 / Fold change vs veh, MED14 / RFU, SNORA58 / Fold change vs veh, SNORA58 / RFU, C1orf63 / Fold change vs veh, C1orf63 / RFU, LRRFIP1 / Fold change vs veh, LRRFIP1 / RFU, NDUFAF7 / Fold change vs veh, NDUFAF7 / RFU, SLC12A2 / Fold change vs veh, SLC12A2 / RFU, IBTK / Fold change vs veh, IBTK / RFU, ESF1 / Fold change vs veh, ESF1 / Fold change vs veh, TMEM50B / RFU, TAOK1 / Fold change vs veh, TAOK1 / RFU, ACBD3 / Fold change vs veh, ACBD3 / RFU, TMA16 / Fold change vs veh, TMA16 / RFU, RWDD3 / Fold change vs veh, RWDD3 / RFU, BCAT1 / Fold change vs veh, BCAT1 / RFU, EDEM3 / Fold change vs veh, EDEM3 / RFU, TMEM33 / Fold change vs veh, TMEM33 / RFU, WDR75 / Fold change vs veh, WDR75 / RFU, AHCTF1 / Fold change vs veh, AHCTF1 / RFU, TFRC / Fold change vs veh, TFRC / RFU, ZDHHC17 / Fold change vs veh, ZDHHC17 / RFU, NOM1 / Fold change vs veh, NOM1 / RFU, ARL8B / Fold change vs veh, ARL8B / RFU, ZBTB11 / Fold change vs veh, ZBTB11 / RFU, TAMM41 / Fold change vs veh, TAMM41 / RFU, KIAA1704 /// LOC100996395 / Fold change vs veh, KIAA1704 /// LOC100996395 / RFU, ING1 / Fold change vs veh, ING1 / RFU, TRMT61B / Fold change vs veh, TRMT61B / RFU, FUBP3 / Fold change vs veh, FUBP3 / RFU, TP53 / Fold change vs veh, TP53 / RFU, TNKS2 / Fold change vs veh, TNKS2 / RFU, ZFP14 / Fold change vs veh, ZFP14 / RFU, ACTR2 / Fold change vs veh, ACTR2 / RFU, PPP3R1 / Fold change vs veh, PPP3R1 / RFU, PIK3R1 / Fold change vs veh, PIK3R1 / RFU, HNRNPA1 / Fold change vs veh, HNRNPA1 / RFU, RNF170 / Fold change vs veh, RNF170 / RFU, ZNF28 / Fold change vs veh, ZNF28 / RFU, RNGTT / Fold change vs veh, RNGTT / RFU, OGT / Fold change vs veh, OGT / RFU, BRD1 / Fold change vs veh, BRD1 / RFU, MARS / Fold change vs veh, MARS / RFU, ZNF655 / Fold change vs veh, ZNF655 / RFU, FAHD1 / Fold change vs veh, FAHD1 / RFU, BDP1 / Fold change vs veh, BDP1 / RFU, LRRCC1 / Fold change vs veh, LRRCC1 / RFU, ARID1A / Fold change vs veh, ARID1A / RFU, ZNF146 / Fold change vs veh, ZNF146 / RFU, ZNF330 / Fold change vs veh, ZNF330 / RFU, GPN3 / Fold change vs veh, GPN3 / RFU, C9orf123 / Fold change vs veh, C9orf123 / RFU, N4BP2L2 / Fold change vs veh, N4BP2L2 / RFU, ARFIP1 / Fold change vs veh, ARFIP1 / RFU, FAM179B / Fold change vs veh, FAM179B / RFU, BCL10 / Fold change vs veh, BCL10 / RFU, UHRF1BP1L / Fold change vs veh, UHRF1BP1L / RFU, BET1 / Fold change vs veh, BET1 / RFU, CNOT2 / Fold change vs veh, CNOT2 / RFU, ZNF268 / Fold change vs veh, ZNF268 / Fold change vs veh, ZNF507 / RFU, DGCR2 / Fold change vs veh, DGCR2 / RFU, WDSUB1 / Fold change vs veh, WDSUB1 / Fold change vs veh, HSP90B1 /// MIR3652 / RFU, ADSS / Fold change vs veh, ADSS / RFU, GK / Fold change vs veh, GK / RFU, ZNF148 / Fold change vs veh, ZNF148 / RFU, TAF9 / Fold change vs veh, TAF9 / RFU, SLC1A5 / Fold change vs veh, SLC1A5 / RFU, SLMO2 / Fold change vs veh, SLMO2 / RFU, ABCC4 / Fold change vs veh, ABCC4 / RFU, LOC101060439 /// RAP1B / Fold change vs veh, LOC101060439 /// RAP1B / RFU, RFX7 / Fold change vs veh, RFX7 / RFU, GTPBP10 / Fold change vs veh, GTPBP10 / RFU, CNEP1R1 / Fold change vs veh, CNEP1R1 / RFU, BIVM-ERCC5 /// ERCC5 / Fold change vs veh, BIVM-ERCC5 /// ERCC5 / RFU, ILF3 / Fold change vs veh, ILF3 / RFU 11762660_at / Fold change /veh 11762660_at / RFU VCAN (11757783_s_at) / Fold change /veh VCAN (11757783_s_at) / RFU DDX43 (11728927_at) / Fold change /veh DDX43 (11728927_at) / RFU KRT8 (11758188_x_at) / Fold change /veh KRT8 (11758188_x_at) / RFU NKD1 (11759106_at) / Fold change /veh NKD1 (11759106_at) / RFU SRD5A1 (11742802_a_at) / Fold change /veh SRD5A1 (11742802_a_at) / RFU TPSAB1 /// TPSB2 (11721975_s_at) / Fold change /veh TPSAB1 /// TPSB2 (11721975_s_at) / RFU GSTM3 (11746129_a_at) / Fold change /veh GSTM3 (11746129_a_at) / RFU IL23R (11737362_x_at) / Fold change /veh IL23R (11737362_x_at) / RFU TMEM51 (11727254_a_at) / Fold change /veh TMEM51 (11727254_a_at) / RFU PIWIL2 (11732686_x_at) / Fold change /veh PIWIL2 (11732686_x_at) / RFU ORM1 (11744905_x_at) / Fold change /veh ORM1 (11744905_x_at) / RFU CCDC152 (11743942_at) / Fold change /veh CCDC152 (11743942_at) / RFU ECM1 (11717891_a_at) / Fold change /veh ECM1 (11717891_a_at) / RFU IL23R (11748794_a_at) / Fold change /veh IL23R (11748794_a_at) / RFU TNFAIP8L3 (11732012_x_at) / Fold change /veh TNFAIP8L3 (11732012_x_at) / RFU MBOAT4 (11741988_at) / Fold change /veh MBOAT4 (11741988_at) / RFU 11764193_at / Fold change /veh 11764193_at / RFU TMEM53 (11763286_at) / Fold change /veh TMEM53 (11763286_at) / RFU MAGEB2 (11727129_at) / Fold change /veh MAGEB2 (11727129_at) / RFU TMEM200A (11744735_a_at) / Fold change /veh TMEM200A (11744735_a_at) / RFU CCDC152 (11751479_a_at) / Fold change /veh CCDC152 (11751479_a_at) / RFU FAM211A (11726209_a_at) / Fold change /veh FAM211A (11726209_a_at) / RFU RGS16 (11746705_a_at) / Fold change /veh RGS16 (11746705_a_at) / RFU VCAN (11755009_s_at) / Fold change /veh VCAN (11755009_s_at) / RFU RHOB (11743442_s_at) / Fold change /veh RHOB (11743442_s_at) / RFU RGS16 (11720943_a_at) / Fold change /veh RGS16 (11720943_a_at) / RFU RGS16 (11720944_at) / Fold change /veh RGS16 (11720944_at) / RFU, VPS4B / Fold change vs veh, VPS4B / RFU, CREB1 / Fold change vs veh, CREB1 / RFU, DNAJC13 / Fold change vs veh, DNAJC13 / RFU, GNAQ / Fold change vs veh, GNAQ / RFU, CDK5R1 / Fold change vs veh, CDK5R1 / RFU, ZRANB3 / Fold change vs veh, ZRANB3 / RFU, CUL4A / Fold change vs veh, CUL4A / RFU, CCNY / Fold change vs veh, CCNY / RFU, UFL1 / Fold change vs veh, UFL1 / RFU, COG3 / Fold change vs veh, COG3 / RFU, DIAPH2 / Fold change vs veh, DIAPH2 / RFU, SKA2 / Fold change vs veh, SKA2 / RFU, AFF3 / Fold change vs veh, AFF3 / RFU, LMF1 / Fold change vs veh, LMF1 / RFU, IPO11 / Fold change vs veh, IPO11 / RFU, DFFB / Fold change vs veh, DFFB / RFU, FOXP1 / Fold change vs veh, FOXP1 / RFU, CARD8 / Fold change vs veh, CARD8 / RFU, STRN3 / Fold change vs veh, STRN3 / RFU, ADK / Fold change vs veh, ADK / RFU, RASSF2 / Fold change vs veh, RASSF2 / RFU, WIPF1 / Fold change vs veh, WIPF1 / RFU, LARP1B / Fold change vs veh, LARP1B / RFU, RASA1 / Fold change vs veh, RASA1 / RFU, RB1 / Fold change vs veh, RB1 / RFU, PPFIA1 / Fold change vs veh, PPFIA1 / RFU, MAT2A / Fold change vs veh, MAT2A / RFU, CCT5 / Fold change vs veh, CCT5 / RFU, WDR92 / Fold change vs veh, WDR92 / RFU, CUX1 / Fold change vs veh, CUX1 / RFU, TTC7A / Fold change vs veh, TTC7A / RFU, TMEM135 / Fold change vs veh, TMEM135 / RFU, DEPTOR / Fold change vs veh, DEPTOR / RFU, CPM / Fold change vs veh, CPM / RFU, DNAJB6 / Fold change vs veh, DNAJB6 / RFU, CACNA2D3 / Fold change vs veh, CACNA2D3 / RFU, DTX4 / Fold change vs veh, DTX4 / RFU, TFCP2 / Fold change vs veh, TFCP2 / RFU, GMCL1 /// GMCL1P1 / Fold change vs veh, GMCL1 /// GMCL1P1 / RFU, AEBP2 / Fold change vs veh, AEBP2 / RFU, SNHG1 /// SNORD22 /// SNORD25 /// SNORD26 /// SNORD27 /// SNORD28 /// SNORD29 /// SNORD31 / Fold change vs veh, SNHG1 /// SNORD22 /// SNORD25 /// SNORD26 /// SNORD27 /// SNORD28 /// SNORD29 /// SNORD31 / Fold change (Aza/veh), C12orf56 (ProbeSet 11735607_a_at) / Fold change (ACY-1035/veh), C12orf56 (ProbeSet 11735607_a_at) / Fold change (Aza/veh), FGFR1OP (ProbeSet 11751329_s_at) / Fold change (ACY-1035/veh), FGFR1OP (ProbeSet 11751329_s_at) / Fold change (Aza/veh), VPS36 (ProbeSet 11739960_a_at) / Fold change (ACY-1035/veh), VPS36 (ProbeSet 11739960_a_at) / RFU SYPL1 (11715823_x_at) / Fold change /veh SYPL1 (11715823_x_at) / RFU IGFBP7 (11715501_s_at) / Fold change /veh IGFBP7 (11715501_s_at) / RFU REEP3 (11722064_at) / Fold change /veh REEP3 (11722064_at) / RFU IGLL1 (11728026_x_at) / Fold change /veh IGLL1 (11728026_x_at): dose or concentration left out as unconfirmed
Conditions: MV-4-11 cells, 48 hours

## Nc1ncn([C@@H]2O[C@H](CO)[C@@H](O)[C@H]2O)c(=O)n1 [azacitidine]
  Fold change /veh DDX43 (11728927_at): 1.23
